Columns and labels:
lysozyme [1] = target: T1, lysozyme (Gallus gallus, UniProt P00698); assay: Estimation of binding constant (Kb) by fluorescence spectrophotometric method; settings: relative to NAG
Protocol: Estimation of binding constant (Kb) of monomers containing NAG by fluorescence spectrophotometric method and the enhancement resulting from conjugation with monomers and monomer containing spacer.
Fluorescence spectra of lysozyme were recorded on a Perkin Elmer LS-50 B luminescence spectrophotometer. Excitation frequency was 285 nm, Solutions of lysozyme and N-Acetyl Glucosamine were prepared in 0.066 M phosphate buffer pH 6.2, containing 0.0154 M sodium chloride and 0.008 M sodium azide. 0 1 milliliter of lysozyme 80 μg/ml was mixed with solution containing different ligand concentration in a 2 ml capacity 10 mm square quartz cells maintained at 18 0 C.
Phosphate buffer was added to make the volume to 2 ml. The fluorescence intensities of the solutions were measured, relative to the solutions containing enzymes and buffer mixtures of the identical concentrations reference. […]

lysozyme [2] = target: T1, lysozyme; assay: Estimation of relative inhibition of lysozyme (Micrococcus lysodeikticus substrate, absorbance at 450 nm); format: biochemical; settings: for 1max: ligand concentration at Imax; for Imax: maximum relative inhibition of lysozyme; for IC50: phosphate buffer pH 6.2, 20 C, Micrococcus lysodeikticus substrate, read-out: I50
Protocol: This example describes the estimation of inhibition of lysozyme by monomers Micrococcus lysodeikticus is a substrate for the enzyme lysozyme. Relative binding of monomers and monomers linked to NAG through the spacer arm was estimated by using a procedure reported by Neuberger and Wilson (1967).
1 5% w/v stock solutions of monomeric ligands was prepared in […] phosphate buffer pH 6.2 containing 0.01 54 m sodium chloride and 0.008 M sodium azide. One milliliter of stock solution containing different ligand concentration was mixed with 1.6 ml of 78 Jig/ml of Micrococcus lysodeikticus in a 3-ml capacity glass cuvette. The mixture was incubated for 5 minutes at 20 0 C. To this mixture 0.1 ml of lysozyme (27 μg/ml) was added and mixed thoroughly. The relative absorbance at 450 nm (Δ450) was recorded for 30 seconds. A blank reading without the ligand was noted and the change in the absorbance per second was calculated. Then relative inhibition was calculated

T1 sequence (P00698 19-147): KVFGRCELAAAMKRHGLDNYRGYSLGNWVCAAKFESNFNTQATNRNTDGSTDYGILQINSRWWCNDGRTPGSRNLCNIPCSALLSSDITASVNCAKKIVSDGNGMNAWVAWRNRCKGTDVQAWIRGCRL

Row | increase in binding constant compared to N-Acetyl Glucosamine (lysozyme [1]) | 1max (lysozyme [2]) | Imax (lysozyme [2]) | IC50 (lysozyme [2]) | Compound
1 | 74 times | 14.81 mM | 50.00 | 14.8 mM | C=CC(=O)OC[C@H]1OC(O)[C@H](NC(C)=O)[C@@H](O)[C@@H]1O (stereo partly shown) [Ac. NAG, Acryloyl N-Acetyl Glacosamine]
2 | – | 92.5 mM | 55.29 | 74 mM | CC(=O)N[C@H]1C(O)O[C@H](CO)[C@@H](O)[C@@H]1O (stereo partly shown) [NAG, N-Acetyl Glucosamine, reference compound]

Row | Compound | increase in binding constant compared to N-Acetyl Glucosamine (lysozyme [1]) | 1max (lysozyme [2]) | Imax (lysozyme [2]) | IC50 (lysozyme [2])
3 | Acryloyl 6-Amino Caproic Acid N-Acetyl Glucosamine [Ac 6ACA.NAG] | – | 0.036 mM | 52.5 | 0.035 mM
